Our source for the viability, T/C and IC50 values is PubChem BioAssay AID1963980 (Molecular Pharmacology Branch, DTP, NCI, 2024).

Molecules are shown by their SMILES.

The subject of the assay is 475296-252-R-J1-PDC spheroid viability. The assay can be described thus: Anticancer human tumor 475296-252-R-J1-PDC patient-derived rectal carcinoma cell line growth inhibition [PI3K]. Conditions: spheroids with HUVEC and MSC; for viability, T/C: stronger effect = lower value. An outline of the steps:
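Stroma-containing spheroids: tumor line, pooled-donor HUVEC, hMSC. Treatments: targeted agents with PI3K inhibitors. Dosing: clinically relevant, half-log spacing, 10 microM ceiling without known Cmax. Read-out: cell viability.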
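Note: spheroids exposed to agents for seven days before readout.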

Turning to `CCN1CCN(Cc2ccc(Nc3ncc(F)c(-c4cc(F)c5nc(C)n(C(C)C)c5c4)n3)nc2)CC1`, the viability, T/C is, setting by setting: (compound 0.00316 µM) 101% [middle of 4 runs]; (compound 0.01 µM) 100% [middle of 4 runs]; (compound 0.0316 µM) 95.7% [middle of 4 runs]; (compound 0.1 µM) 100% [middle of 4 runs]; (compound 0.316 µM) 101% [middle of 4 runs]; (compound 1 µM) 92.4% [middle of 4 runs]. Further, the IC50 (curve of compound) was greater than 1000 nM.

By viability, T/C is commonly meant the ratio of treated to control. Broadly, the IC50 is the concentration needed to halve the response being measured.
